Reference: patent publication US12459891B2, “1-[1-(4-benzyloxy-3,5-difluoro-benzoyl)-4-fluoro-pyrrolidine-2-carbonyl]-pyrrolidine-2-carbonitrile” (ACCURE THERAPEUTICS, S.L., priority 2020, dated 2025)

What was measured:
[1] = Plasma levels after oral administration; type: in vivo
[2] = molecular target: T1, human prolyl oligopeptidase (Homo sapiens, UniProt P48147); test: POP inhibition assay (Z-G-P-AMC substrate, fluorimetric); type: biochemical; settings: hPOP 20 to 60 nM, 15 min preincubation, 1 hour at 37° C., pH 8.0
T1 construct: His tail; made in house; host or cells: E. coli BL21
T1 sequence (P48147 1-710): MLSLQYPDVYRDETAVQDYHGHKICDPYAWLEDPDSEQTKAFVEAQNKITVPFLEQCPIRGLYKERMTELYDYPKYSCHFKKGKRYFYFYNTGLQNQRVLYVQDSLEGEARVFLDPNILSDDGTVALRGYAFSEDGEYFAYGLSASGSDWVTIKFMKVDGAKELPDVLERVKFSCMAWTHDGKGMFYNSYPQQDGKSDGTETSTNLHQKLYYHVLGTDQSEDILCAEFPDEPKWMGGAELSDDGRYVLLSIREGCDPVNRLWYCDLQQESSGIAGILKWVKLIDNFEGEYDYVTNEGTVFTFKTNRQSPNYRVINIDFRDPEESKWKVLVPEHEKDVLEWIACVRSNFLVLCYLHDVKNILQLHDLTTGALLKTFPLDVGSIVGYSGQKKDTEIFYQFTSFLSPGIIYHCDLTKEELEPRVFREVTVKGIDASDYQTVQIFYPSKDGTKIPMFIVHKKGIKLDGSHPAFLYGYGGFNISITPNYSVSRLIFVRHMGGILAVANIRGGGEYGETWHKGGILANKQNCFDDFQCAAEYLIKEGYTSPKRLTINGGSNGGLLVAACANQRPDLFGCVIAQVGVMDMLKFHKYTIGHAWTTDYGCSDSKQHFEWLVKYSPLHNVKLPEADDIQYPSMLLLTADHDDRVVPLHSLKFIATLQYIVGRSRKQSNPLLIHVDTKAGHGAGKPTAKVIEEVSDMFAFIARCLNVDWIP
Procedure: POP was obtained by expression in E. coli and affinity purification using a His tail fusion according to a literature procedure (Tarragó T et al., Chem Bio Chem 2006; 7:827-33) summarized below:
hPOP expression: E. coli BL21 competent cells were transformed with pETM10 hPOP. To induce expression, a pre-culture of LB medium (50 mL) containing kanamycin (50 μg/mL) was inoculated with one colony and was grown overnight at 37° C. Next day, two cultures of LB medium (500 mL) were inoculated with the overnight culture (10 mL). The inoculated cultures were grown at 37° C. and 220 rpm until the OD595 was 1.2 (2.5-3 hours). […] The column was washed with suspension buffer until the absorbance at 280 nm returned to basal level. […] POP activity was checked in all fractions and positive ones were analyzed by SDS-PAGE and stained with Biosafe Comassie Stain G-250. […] Recombinant hPOP was quantified with the Bio-Rad Protein Assay with BSA as standard. […]
POP activity was determined following the method described by Toide et al (Toide K et al., J. Pharmacol. Exp. Ther. 1995; 274:1370-8), using Z-G-P-AMC (N-benzyloxycarbonyl-Gly-Pro-methylcoumarinyl-7-amide) as POP substrate. […]
Several concentration points (ranging from 25 μM to 400 μM) were measured for each compound. The inhibitory activity on prolyl oligopeptidase was calculated according to eq 1. […]

Detected plasma levels of the drug (in words) [1]	IC50 [2] [nM]	SMILES
very low		COc1cc(C(=O)N2CC(F)(F)C[C@H]2C(=O)N2CCC[C@H]2C#N)cc(OC)c1OCc1ccccc1 [Comp Ex. 3, (S)-1-((2S)-1-(4-(benzyloxy)-3,5-dimethoxybenzoyl)-4,4-difluoropyrrolidine-2-carbonyl)pyrrolidine-2-carbonitrile]
	365	N#C[C@@H]1CCCN1C(=O)[C@@H]1CC(F)(F)CN1C(=O)c1ccc(OCc2ccccc2)c(F)c1 [Comp Ex. 4, (S)-1-((S)-1-(4-(benzyloxy)-3-fluorobenzoyl)-4,4-difluoropyrrolidine-2-carbonyl) pyrrolidine-2-carbonitrile]
	45	N#C[C@@H]1CCCN1C(=O)[C@@H]1C[C@@H](F)CN1C(=O)c1cc(F)c(OCc2ccccc2)c(F)c1 [Example 1, (S)-1-((2S,4R)-1-(4-(benzyloxy)-3,5-difluorobenzoyl)-4-fluoropyrrolidine-2-carbonyl)pyrrolidine-2-carbonitrile]
